The test relates to Saccharomyces cerevisiae. Nature of the test: Antifungal activity against DNA-damage repair genes deficient Saccharomyces cerevisiae RS 321 after 48 hrs by mechanism based bioassay. Type of test: functional.

The molecule `CC(=O)OCC(COC(C)=O)=C1C=C[C@]2(C)C/C=C(\C)CC[C@@H]3O[C@@]3(C)CC[C@@H]12` registered an IC12 above 3000 µg/mL.

Molecule `CC(=O)OC/C1=C\C[C@@]2(C)CC(=O)C(=C(C)C)[C@@H]2CC[C@]2(C)O[C@H]2CC1` came in with an IC12 of 1800 µg/mL.

For `C=C(C)C1C/C=C(\C)CC[C@H](O)[C@@]2(C)CCC=C(CC1)C(=O)O2` (stereo partly specified), the IC12 was above 3000 µg/mL.

Consider `CC(=O)O[C@H]1C/C(C)=C/C[C@@]2(C)CC(=O)C(=C(C)C)[C@@H]2CC[C@]2(C)O[C@@H]12`, for which the IC12 is above 3000 µg/mL.

Turning to `C/C1=C\C[C@@]2(C)C(=O)C=C(C(C)C)[C@@H]2CC[C@]2(C)O[C@H]2CC1`, the IC12 came to 2600 µg/mL.

As to `CC(C)=C1C(=O)C[C@]2(C)C/C=C(\C)CC[C@@H]3O[C@@]3(C)CC[C@@H]12`, the IC12 is 1500 µg/mL.
